Like-named read-outs stand apart in the source and are kept apart here.
Biological target: T1, Recombinant human Src (Homo sapiens, UniProt P12931)
T1 construct: made in house; host or cells: baculovirus-insect cell system
Assay: Src tyrosine kinase activity, poly E4Y and 32P-ATP
Format: biochemical
Method: Recombinant human Src was expressed using the baculovirus-insect cell system and purified as published (Budde et al., 1993 and 2000). Recombinant Csk and the FGF receptor (FGFr) were expressed as glutathione-S-transferase fusion proteins using the pGEX expression vector and E. coli, and purified as described (Sun & Budde, 1995).
The tyrosine kinase activity of Src, Csk and FGFr was determined using poly E4Y and ^32P-ATP. Briefly, enzymes were assayed in a reaction mixture consisting of 0.15 M EPPS-NaOH (pH 8.0) with 6 mM MgCl2, 0.2 mM γ^32P-ATP (0.2-0.4 mCi/μmol), 10% glycerol, 0.1% Triton X-100, and poly E4Y. Poly E4Y is a synthetic peptide whose phosphorylation is measured in this assay by the addition of the radioactively labeled phosphate from the ATP (Budde et al., 1995). […] When ATP was varied (0, 50, 100 and 250 μM), poly E4Y was kept constant at 150 μg/ml.

[1] = Table 2, read-out: Src IC50 (especially good inhibitors of Src)
[2] = read-out: IC50 (preferred compounds for treatment of Src family-related disease)

T1 sequence (P12931 whole entry): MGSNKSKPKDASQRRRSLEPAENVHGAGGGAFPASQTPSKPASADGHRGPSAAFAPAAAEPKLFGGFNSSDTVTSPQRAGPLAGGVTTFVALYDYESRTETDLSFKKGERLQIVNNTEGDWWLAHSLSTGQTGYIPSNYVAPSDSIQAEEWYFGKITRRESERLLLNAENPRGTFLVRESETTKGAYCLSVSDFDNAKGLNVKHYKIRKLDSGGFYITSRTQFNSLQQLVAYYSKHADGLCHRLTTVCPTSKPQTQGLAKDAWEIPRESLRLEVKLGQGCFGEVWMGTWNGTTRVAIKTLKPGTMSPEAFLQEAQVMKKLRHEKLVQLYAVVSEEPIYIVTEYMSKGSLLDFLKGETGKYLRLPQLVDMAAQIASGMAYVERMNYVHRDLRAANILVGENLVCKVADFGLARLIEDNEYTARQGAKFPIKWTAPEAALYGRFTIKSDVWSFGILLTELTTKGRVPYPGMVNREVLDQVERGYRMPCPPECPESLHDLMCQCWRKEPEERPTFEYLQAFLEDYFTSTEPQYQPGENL

| Structure (SMILES) | IC50 [1] | IC50 [2] |
| --- | --- | --- |
| Cc1c(-c2ccsc2)sc2c(NN=Cc3ccc(C(=O)O)cc3)ncnc12 [Compound 380, 4-Carboxybenzaldehyde(7-methyl-6-(3-thienyl)thieno[3,2-d]pyrimidin-4-yl)hydrazone] | ≤ 2000 nM | < 2000 nM |
| COc1ccc(C=NNc2ncnc3c(C)c(-c4ccsc4)sc23)cc1O [Compound 382, 3-Hydroxy-4-methoxybenzaldehyde(7-methyl-6-(3-thienyl)thieno[3,2-d]pyrimidin-4-yl)hydrazone] | ≤ 2000 nM | < 2000 nM |
| Cc1c(-c2ccccc2Cl)sc2c(NN=Cc3ccc(C(=O)O)cc3)ncnc12 [Compound 390, 4-Carboxybenzaldehyde(6-(2-chlorophenyl)7-methylthieno[3,2-d]pyrimidin-4-yl)hydrazone] | ≤ 2000 nM | < 2000 nM |
| O=C(O)c1ccc(C=NNc2ncnc3cc(I)sc23)cc1 [Compound 395, 4-Carboxybenzaldehyde(6-iodothieno[3,2-d]pyrimidin-4-yl)hydrazone] | ≤ 2000 nM | < 2000 nM |
| COc1ccc(-c2cc3ncnc(NN=Cc4cccnc4)c3s2)cc1 [Compound 405, 3-Pyridinecarboxaldehyde(6-(4-methoxyphenyl)thieno[3,2-d]pyrimidin-4-yl)hydrazone] | ≤ 2000 nM | < 2000 nM |
| COc1ccc(-c2cc3ncnc(NN=Cc4ccc(C(=O)O)cc4)c3s2)cc1 [Compound 406, 4-Carboxybenzaldehyde(6-(4-methoxyphenyl)thieno[3,2-d]pyrimidin-4-yl)hydrazone] | ≤ 2000 nM | < 2000 nM |
| COc1ccc(-c2sc3c(NN=Cc4ccc(C(=O)O)cc4)ncnc3c2C)cc1 [Compound 423, 4-Carboxybenzaldehyde(6-(4-methoxyphenyl)-7-methylthieno[3,2-d]pyrimidin-4-yl)hydrazone] | ≤ 2000 nM | < 2000 nM |
| COc1cccc(-c2sc3c(NN=Cc4ccc(C(=O)O)cc4)ncnc3c2C)c1 [Compound 427, 4-Carboxybenzaldehyde(6-(3-methoxyphenyl)-7-methylthieno[3,2-d]pyrimidin-4-yl)hydrazone] | ≤ 2000 nM | < 2000 nM |
| COc1ccccc1-c1sc2c(NN=Cc3ccc(C(=O)O)cc3)ncnc2c1C [Compound 433, 4-Carboxybenzaldehyde(6-(2-methoxyphenyl)-7-methylthieno[3,2-d]pyrimidin-4-yl)hydrazone] | ≤ 2000 nM | < 2000 nM |
| COc1ccccc1-c1sc2c(NN=Cc3cccs3)ncnc2c1C [Compound 434, 2-Thiophenecarboxaldehyde(6-(2-methoxyphenyl)-7-methylthieno[3,2-d]pyrimidin-4-yl)hydrazone] | ≤ 2000 nM | < 2000 nM |
| COc1ccc(C=NNc2ncnc3c(C)c(-c4ccccc4OC)sc23)cc1O [Compound 435, 3-Hydroxy-4-methoxybenzaldehyde(6-(2-methoxyphenyl)-7-methylthieno[3,2-d]pyrimidin-4-yl)hydrazone] | ≤ 2000 nM | < 2000 nM |
| Cc1c(-c2ccc(CO)cc2)sc2c(NN=Cc3ccc(C(=O)O)cc3)ncnc12 [Compound 437, 4-Carboxybenzaldehyde(6-(4-hydroxymethylphenyl)-7-methylthieno[3,2-d]pyrimidin-4-yl)hydrazone] | ≤ 2000 nM | < 2000 nM |
| Cc1c(-c2cccc(CO)c2)sc2c(NN=Cc3cccnc3)ncnc12 [Compound 440, 3-Pyridinecarboxaldehyde(6-(3-hydroxymethylphenyl)-7-methylthieno[3,2-d]pyrimidin-4-yl)hydrazone] | ≤ 2000 nM | < 2000 nM |
| Cc1c(-c2cccc(CO)c2)sc2c(NN=Cc3ccc(C(=O)O)cc3)ncnc12 [Compound 441, 4-Carboxybenzaldehyde(6-(3-hydroxymethylphenyl)-7-methylthieno[3,2-d]pyrimidin-4-yl)hydrazone] | ≤ 2000 nM | < 2000 nM |
| COc1ccc(C=NNc2ncnc3c(C)c(-c4cccc(CO)c4)sc23)cc1O [Compound 443, 3-Hydroxy-4-methoxybenzaldehyde(6-(3-hydroxymethylphenyl)-7-methylthieno[3,2-d]pyrimidin-4-yl)hydrazone] | ≤ 2000 nM | < 2000 nM |
| Cc1c(/C=C/c2ccccc2)sc2c(NN=Cc3ccc(C(=O)O)cc3)ncnc12 [Compound 448, 4-Carboxybenzaldehyde(7-methyl-6-(trans-2-phenylvinyl)-thieno[3,2-d]pyrimidin-4-yl)hydrazone] | ≤ 2000 nM | < 2000 nM |
| Cc1c(-c2ccc(C(=O)O)cc2)sc2c(NN=Cc3cccnc3)ncnc12 [Compound 453, 3-Pyridinecarboxaldehyde(6-(4-carboxyphenyl)-7-methylthieno[3,2-d]pyrimidin-4-yl)hydrazone] | ≤ 2000 nM | < 2000 nM |
| Cc1c(-c2ccc(C(=O)O)cc2)sc2c(NN=Cc3cccs3)ncnc12 [Compound 455, 2-Thiophenecarboxaldehyde(6-(4-carboxyphenyl)-7-methylthieno[3,2-d]pyrimidin-4-yl)hydrazone] | ≤ 2000 nM | < 2000 nM |
| COc1ccc(C=NNc2ncnc3c(C)c(-c4ccc(C(=O)O)cc4)sc23)cc1O [Compound 456, 3-Hydroxy-4-methoxybenzaldehyde(6-(4-carboxyphenyl)-7-methylthieno[3,2-d]pyrimidin-4-yl)hydrazone] | ≤ 2000 nM | < 2000 nM |

The next lines start with the values.

| IC50 [1] | IC50 [2] | Structure (SMILES) |
| --- | --- | --- |
| ≤ 2000 nM | < 2000 nM | Cc1csc2c(NN=Cc3ccc(O)c(O)c3)ncnc12 [Compound 23, 3,4-Dihydroxybenzaldehyde(7-methylthieno[3,2-d]pyrimidin-4-yl)hydrazone] |
| ≤ 2000 nM | < 2000 nM | Cc1csc2c(NN=Cc3c[nH]cn3)ncnc12 [Compound 42, 1H-Imidazole-4-carboxaldehyde(7-methylthieno[3,2-d]pyrimidin-4-yl)hydrazone] |
| ≤ 2000 nM | < 2000 nM | Cc1csc2c(NN=Cc3ccc(O)c([N+](=O)[O-])c3)ncnc12 [Compound 49, 4-Hydroxy-3-nitrobenzaldehyde(7-methylthieno[3,2-d]pyrimidin-4-yl)hydrazone] |
| ≤ 2000 nM | < 2000 nM | Cc1csc2c(NN=Cc3ccc(O)c(Cl)c3)ncnc12 [Compound 55, 3-Chloro-4-hydroxybenzaldehyde(7-methylthieno[3,2-d]pyrimidin-4-yl)hydrazone] |
| ≤ 2000 nM | < 2000 nM | C(=NNc1ncnc2ccsc12)c1cccnc1 [Compound 98, 3-Pyridinecarboxaldehyde(thieno[3,2-d]pyrimidin-4-yl)hydrazone] |
| ≤ 2000 nM | < 2000 nM | Cc1[nH]cnc1C=NNc1ncnc2c(C)csc12 [Compound 100, 5-Methyl-1H-imidazole-4-carboxaldehyde(7-methylthieno[3,2-d]pyrimidin-4-yl)hydrazone] |
| ≤ 2000 nM | < 2000 nM | Cc1csc2c(NN=CC3CC3)ncnc12 [Compound 178, Cyclopropanecarboxaldehyde(7-methylthieno[3,2-d]pyrimidin-4-yl)hydrazone] |
| ≤ 2000 nM | < 2000 nM | O=C(O)c1ccc(C=NNc2ncnc3c2sc2ncccc23)cc1 [Compound 245, 4-Carboxybenzaldehyde(pyrido[3′,2′:4,5]thieno[3,2-d]pyrimidin-4-yl)hydrazone] |
| ≤ 2000 nM | < 2000 nM | O=C(O)c1ccc(C=NNc2ncnc3cc(-c4ccc(F)cc4)sc23)cc1 [Compound 280, 4-Carboxybenzaldehyde(6-(4-fluorophenyl)thieno[3,2-d]pyrimidin-4-yl)hydrazone] |
| ≤ 2000 nM | < 2000 nM | CS(=O)(=O)c1ccc(-c2cc3ncnc(NN=Cc4ccc(C(=O)O)cc4)c3s2)cc1 [Compound 291, 4-Carboxybenzaldehyde(6-(4-methanesulphonylphenyl)thieno-[3,2-d]pyrimidin-4-yl)hydrazone] |
| ≤ 2000 nM | < 2000 nM | O=C(O)c1ccc(C=NNc2ncnc3cc(-c4cccc(Cl)c4)sc23)cc1 [Compound 305, 4-Carboxybenzaldehyde(6-(3-chlorophenyl)thieno[3,2-d]pyrimidin-4-yl)hydrazone] |
| ≤ 2000 nM | < 2000 nM | O=C(O)c1ccc(C=NNc2ncnc3cc(-c4ccccc4Cl)sc23)cc1 [Compound 318, 4-Carboxybenzaldehyde(6-(2-chlorophenyl)thieno[3,2-d]pyrimidin-4-yl)hydrazone] |
| ≤ 2000 nM | < 2000 nM | COc1ccc(C=NNc2ncnc3cc(-c4ccccc4Cl)sc23)cc1O [Compound 321, 3-Hydroxy-4-methoxybenzaldehyde(6-(2-chlorophenyl)thieno[3,2-d]pyrimidin-4-yl)hydrazone] |
| ≤ 2000 nM | < 2000 nM | Cc1c(-c2ccccc2)sc2c(NN=Cc3cccnc3)ncnc12 [Compound 359, 3-Pyridinecarboxaldehyde(7-methyl-6-phenylthieno[3,2-d]pyrimidin-4-yl)hydrazone] |
| ≤ 2000 nM | < 2000 nM | Cc1c(-c2ccccc2)sc2c(NN=Cc3ccc(C(=O)O)cc3)ncnc12 [Compound 360, 4-Carboxybenzaldehyde(7-methyl-6-phenylthieno[3,2-d]pyrimidin-4-yl)hydrazone] |
| ≤ 2000 nM | < 2000 nM | Cc1c(I)sc2c(NN=Cc3ccc(C(=O)O)cc3)ncnc12 [Compound 373, 4-Carboxybenzaldehyde(6-iodo-7-methylthieno[3,2-d]pyrimidin-4-yl)hydrazone] |

From patent US7285556B2, “Thienopyrimidine-based inhibitors of the src family” (Board of Regents, The University of Texas Systems, priority 2000, dated 2007)
